According to patent US12011444B2, “N-substituted indole derivatives as PGE2 receptor modulators” (Idorsia Pharmaceuticals Ltd, priority 2015, dated 2024):
Where two headings read alike, the source gives them in different places.

Tests used:
[1] = target: EP4 (Homo sapiens (Human), UniProt P35408); experiment: hEP4 cAMP assay (BT549 breast cancer cells, HTRF cAMP); type: cell-based; details: antagonistic activity; mean values where measured multiple times
Method: Plate is pre-incubated 45 minutes at room temperature. Subsequently, 2.5 microliters of PGE2 (final conc. 6 nM) are transferred into the assay plate. Plate is incubated 30 minutes at room temperature.

[2] = target: T1, EP2 (Homo sapiens (Human), UniProt P43116); experiment: cell-based;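 further: antagonism of PGE2-stimulated cAMP accumulation in SF295 human glioblastoma cells with endogenous EP2, cAMP read by HTRF, expressed relative to DMSO control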
From the text: (§1) Human tumor cell lines expressing endogenously either EP4 or EP2 are used and cAMP accumulation in cells upon PGE2 stimulation is monitored. SF295 glioblastoma cells express high endogenous EP2 and no EP4, whereas BT549 breast cancer cells, express high endogenous EP4 levels and very low EP2 levels.
(§2) As a detection method for cAMP the HTRF (homogeneous time resolved fluorescence) Cisbio kit (HTRF cAMP dynamic 2 kit 20′000 tests Cisbio Cat. #62AM4PEC) was used, which is based on a competitive immunoassay using a Cryptate-labeled anti-cAMP antibody and d2-labeled cAMP. Native cAMP produced by cells or unlabeled cAMP (for the standard curve) compete with exogenously added d2-labeled cAMP (acceptor) for binding to monoclonal anti-cAMP-Eu3+Cryptate (donor). A FRET signal (Fluorescence Resonance Energy Transfer) is obtained only if the labeled anti-cAMP antibody binds the d2 labelled cAMP, thus the specific signal (i.e. energy transfer) is inversely proportional to the concentration of cAMP in the standard or sample.
(§3) The SF295 cells (NCI/No. 0503170) are detached from culture dishes with a cell dissociation buffer (Invitrogen, 13151-014), and collected in growing medium (GM: RPM11640 (Invitrogen 21875)/10% FCS, 1% Penicilin/streptomycin). Cells are counted washed and resuspended in assay buffer (AB; HBSS, 20 mM HEPES, 0.2% BSA; 2 mM IBMX). 4,000 cells in 5 μl of AB are seeded per well of a small volume 384 well plate (black with flat bottom, Greiner 784076).
(§4) PGE2 (Cayman 14010, stock solution: 75 μM in DMSO) is used as agonist at 75 nM final concentration, corresponding to EC80.
(§5) Two point five microliters of diluted compounds are transferred into the assay plate. Plate is pre-incubated 45 minutes at room temperature. Subsequently, 2.5 microliters of PGE2 (final conc. 75 nM) are transferred into the assay plate. Plate is incubated 30 minutes at room temperature. Five μl of each donor (anti-cAMP cryptate) and acceptor (cAMP-d2) are added and the plate is incubated another hour at room temperature in the dark and then read using a BMG LABTECH PHERAstar reader (Excitation: 337 nm, Emission: 620 and 665 nm).
(§6) The obtained Delta F (fluorescence) values (665 nm/620 nM) are converted into % cAMP values using the measurements of the cAMP calibrator provided in the kit. For each compound concentration the percentage of cAMP compared to DMSO control value as average±STDEV (each concentration is measured in duplicate) is calculated.
(§7) IC50 values and curves are generated with XLfit software (IDBS) using Dose-Response One Site model 203. When compounds were measured multiple times, mean values are given.

[3] = target: T1, EP2
From the text: as §1, §2, §3, §4, §5, §6, §7

T1 sequence (P43116 whole entry): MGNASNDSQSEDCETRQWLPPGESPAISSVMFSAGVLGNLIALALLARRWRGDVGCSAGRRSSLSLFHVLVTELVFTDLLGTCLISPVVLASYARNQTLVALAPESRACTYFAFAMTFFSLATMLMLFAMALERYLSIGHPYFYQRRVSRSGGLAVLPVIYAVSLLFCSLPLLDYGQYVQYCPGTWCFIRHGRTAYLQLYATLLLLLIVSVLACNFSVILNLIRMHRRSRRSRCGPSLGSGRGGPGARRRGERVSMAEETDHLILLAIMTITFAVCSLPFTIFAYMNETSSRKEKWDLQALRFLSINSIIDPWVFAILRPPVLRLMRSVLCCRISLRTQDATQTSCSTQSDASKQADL
EP4, sequence (P35408 whole entry): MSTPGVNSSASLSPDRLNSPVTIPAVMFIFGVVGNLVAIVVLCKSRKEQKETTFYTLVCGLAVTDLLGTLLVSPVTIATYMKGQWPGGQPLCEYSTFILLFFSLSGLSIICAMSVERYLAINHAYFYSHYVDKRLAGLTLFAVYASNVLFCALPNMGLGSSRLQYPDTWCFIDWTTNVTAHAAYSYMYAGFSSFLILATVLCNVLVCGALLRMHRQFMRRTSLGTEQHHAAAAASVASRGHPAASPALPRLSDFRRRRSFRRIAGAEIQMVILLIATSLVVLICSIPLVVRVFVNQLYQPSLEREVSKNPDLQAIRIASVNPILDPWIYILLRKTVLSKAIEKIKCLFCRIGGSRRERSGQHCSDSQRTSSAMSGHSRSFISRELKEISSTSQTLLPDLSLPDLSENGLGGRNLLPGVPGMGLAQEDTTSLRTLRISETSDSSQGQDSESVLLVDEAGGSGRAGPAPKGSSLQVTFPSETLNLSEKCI

Compound CCOc1cc(-c2cc(NCC(C)n3c(C)cc4c(OC)ccc(F)c43)ncn2)ccc1C(=O)O (racemic) [Example 794, rac-2-Ethoxy-4-{6-[2-(7-fluoro-4-methoxy-2-methyl-indol-1-yl)-propylamino]-pyrimidin-4-yl}-benzoic acid] has an IC50 [1] of 798 nM and an IC50 [2] of 309 nM.
COc1ccc(F)c2c1cc(C)n2C(C)CNc1cc(-c2ccc(C(=O)O)c(CC(C)C)c2)ncn1 (racemic) [Example 795, rac-4-{6-[2-(7-Fluoro-4-methoxy-2-methyl-indol-1-yl)-propylamino]-pyrimidin-4-yl}-2-isobutyl-benzoic acid] gave an IC50 [1] of 306 nM and an IC50 [2] of 85 nM.
In the case of COc1cccc2c1cc(C)n2CCNc1cc(-c2ccc3c(c2)C(CC(C)C)NC3=O)ncn1 (racemic) [compound 461], the IC50 [1] is reported as 224 nM and the IC50 [2] is reported as 24 nM.
With CCCC1NC(=O)c2ccc(-c3cc(NCCn4c(C)cc5c(OC)ccc(F)c54)ncn3)cc21 (racemic) [compound 465] the IC50 [1] was 75 nM and the IC50 [2] was 17 nM.
Compound Cc1ccc(F)c2c1cc(C)n2CCNc1cc(-c2ccc3c(c2)C(CC(C)C)NC3=O)ncn1 (racemic) [compound 468] has an IC50 [1] of 264 nM and an IC50 [2] of 59 nM.
In the case of COc1ccc(F)c2c1cc(C)n2CCNc1cc(-c2ccc3c(c2)C(CC(C)C)NC3=O)ncn1 (racemic) [compound 474], the IC50 [1] is reported as 224 nM and the IC50 [2] is reported as 22 nM.
CCOc1cc(-c2cc(NCCn3c(C)cc4c(OC)ccc(F)c43)ncn2)ccc1C(O)C(F)(F)F (racemic) [compound 571] gave an IC50 [1] of 511 nM and an IC50 [2] of 149 nM.
Compound COc1ccc(F)c2c1cc(C)n2CCNc1cc(-c2cc(Cl)c(C(=O)O)c(OCC(F)(F)F)c2)ncn1 [compound 725] has an IC50 [1] of 58 nM and an IC50 [3] of 6 nM.
In the case of COc1cc(F)cc2c1cc(C)n2CCNc1cc(-c2cccc(-n3cccn3)c2)ncn1 [compound 726], the IC50 [1] is reported as 388 nM and the IC50 [3] is reported as 41 nM.
COc1cc(F)cc2c1cc(C)n2CCNc1cc(-c2ccc(-c3ccccn3)cc2)ncn1 [compound 727] showed an IC50 [1] of 238 nM and an IC50 [3] of 34 nM.
In the case of COc1cc(F)cc2c1cc(C)n2CCNc1cc(-c2ccc3ccncc3c2)ncn1 [compound 728], the IC50 [1] is reported as 109 nM and the IC50 [3] is reported as 36 nM.
Cc1cc(F)cc2c1cc(C)n2CCNc1cc(-c2ccc(-c3ccccn3)cc2)ncn1 [compound 730] showed an IC50 [1] of 489 nM and an IC50 [3] of 30 nM.
Cc1cc(F)cc2c1cc(C)n2CCNc1cc(-c2ccc3ccncc3c2)ncn1 [compound 731] was tested, and the IC50 [1] was 276 nM and the IC50 [3] was 36 nM.
Compound Cc1cc(F)cc2c1cc(C)n2CCNc1cc(-c2ccc3ncccc3c2)ncn1 [compound 732] has an IC50 [1] of 341 nM and an IC50 [3] of 41 nM.
Cc1cc(F)cc2c1cc(C)n2CCNc1cc(-c2ccc3nccnc3c2)ncn1 [compound 733] showed an IC50 [1] of 809 nM and an IC50 [3] of 88 nM.
Compound Cc1cnoc1-c1ccc(-c2cc(NCCn3c(C)cc4c(C)cc(F)cc43)ncn2)cc1 [compound 734] has an IC50 [1] of 465 nM and an IC50 [3] of 95 nM.
In the case of Cc1cnoc1-c1ccc(-c2cc(NCCn3c(C)cc4c(C)ccc(F)c43)ncn2)cc1 [compound 735], the IC50 [1] is reported as 620 nM and the IC50 [3] is reported as 93 nM.
COc1cc(F)cc2c1cc(C)n2CCNc1cc(-c2ccc(-c3oncc3C)cc2)ncn1 [compound 736, [2-(6-Fluoro-4-methoxy-2-methyl-indol-1-yl)-ethyl]-{6-[4-(4-methyl-isoxazol-5-yl)-phenyl]-pyrimidin-4-yl}-amine] was tested, and the IC50 [1] was 399 nM and the IC50 [3] was 39 nM.
In the case of COc1ccc(F)c2c1cc(C)n2CCNc1cc(-c2ccc(-c3oncc3C)cc2)ncn1 [compound 737, [2-(7-Fluoro-4-methoxy-2-methyl-indol-1-yl)-ethyl]-{6-[4-(4-methyl-isoxazol-5-yl)-phenyl]-pyrimidin-4-yl}-amine], the IC50 [1] is reported as 156 nM and the IC50 [3] is reported as 25 nM.
Work on COc1cc(F)c(F)c2c1cc(C)n2CCNc1cc(-c2ccc(-c3oncc3C)cc2)ncn1 [compound 738] yielded an IC50 [1] of 177 nM and an IC50 [3] of 63 nM.
Cc1ccc(F)c2c1cc(C)n2CCNc1cc(-c2ccc3nn[nH]c3c2)ncn1 [compound 739, [6-(3H-Benzotriazol-5-yl)-pyrimidin-4-yl]-[2-(7-fluoro-2,4-dimethyl-indol-1-yl)-ethyl]-amine] gave an IC50 [1] of 450 nM and an IC50 [3] of 43 nM.
For Cc1ccc(F)c2c1cc(C)n2CCNc1cc(-c2ccc3c(c2)OCCO3)ncn1 [compound 740], the IC50 [1] was 655 nM and the IC50 [3] was 183 nM.
Work on Cc1ccc(F)c2c1cc(C)n2CCNc1cc(-c2ccc(-n3cncn3)cc2)ncn1 [compound 741, [2-(7-Fluoro-2,4-dimethyl-indol-1-yl)-ethyl]-[6-(4-[1,2,4]triazol-1-yl-phenyl)-pyrimidin-4-yl]-amine] yielded an IC50 [1] of 505 nM and an IC50 [3] of 37 nM.
In the case of COc1cc(F)cc2c1cc(C)n2CCNc1cc(-c2ccc(-c3ccno3)cc2)ncn1 [compound 743, [2-(6-Fluoro-4-methoxy-2-methyl-indol-1-yl)-ethyl]-[6-(4-isoxazol-5-yl-phenyl)-pyrimidin-4-yl]-amine], the IC50 [1] is reported as 315 nM and the IC50 [3] is reported as 10 nM.
COc1ccc(F)c2c1cc(C)n2CCNc1cc(-c2ccc(-c3ccno3)cc2)ncn1 [compound 744, [2-(7-Fluoro-4-methoxy-2-methyl-indol-1-yl)-ethyl]-[6-(4-isoxazol-5-yl-phenyl)-pyrimidin-4-yl]-amine] gave an IC50 [1] of 251 nM and an IC50 [3] of 8 nM.
COc1cc(F)c(F)c2c1cc(C)n2CCNc1cc(-c2ccc(-c3ccno3)cc2)ncn1 [compound 745, [2-(6,7-Difluoro-4-methoxy-2-methyl-indol-1-yl)-ethyl]-[6-(4-isoxazol-5-yl-phenyl)-pyrimidin-4-yl]-amine] gave an IC50 [1] of 840 nM and an IC50 [3] of 25 nM.
